Measurements: PubChem BioAssay AID330 (DTP/NCI, 2004)
Several values for one entry are separate records, joined by “and”; a condition that tells them apart may be missing. Equal values may be shown once. Toxic doses and inconclusive results are not listed. Rule for the calls: active = survival T/C of 150% or more; inactive = T/C below 125% in these data.

Tested on: P388 leukemia ip, CD2F1 mice, survival T/C
Assay: NCI In Vivo Anticancer Drug Screen. Data for tumor model P388 Leukemia (intraperitoneal) in CD2F1 (CDF1) mice
Conditions: endpoint: median survival time, higher = longer survival
Procedure, shortened: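 Mice carrying the transplanted tumor received test compound or vehicle. Survival was recorded in each group, and the value is the treated-group measurement divided by that of the vehicle-treated control group.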

[1] = dose: 100.0 mg/kg/injection, schedule: Q01DX009 (ip), vehicle: saline
[2] = dose: 50.0 mg/kg/injection, schedule: Q01DX005 (ip), vehicle: Klucel (hydroxypropylcellulose) (HPC)
[3] = dose: 100.0 mg/kg/injection, schedule: Q01DX005 (ip), vehicle: Klucel (hydroxypropylcellulose) (HPC)

Measured: T/C

COc1cc2c(c(OC)c1OC)-c1ccc(OC)c(=O)cc1[C@@H](NC(=O)CCl)CC2
inactive: dose: 0.06 mg/kg/injection, schedule: Q01DX009 (ip), vehicle: Klucel (hydroxypropylcellulose) (HPC) 114 % of control | dose: 0.15 mg/kg/injection, schedule: Q01DX009 (ip), vehicle: saline 103 % of control | dose: 0.25 mg/kg/injection, schedule: Q01DX009 (ip), vehicle: Klucel (hydroxypropylcellulose) (HPC) 115 % of control | dose: 0.31 mg/kg/injection, schedule: Q01DX009 (ip), vehicle: saline 122 % of control | dose: 0.5 mg/kg/injection, schedule: Q01DX009 (ip), vehicle: saline with Tween-80 93 % of control
active: dose: 0.12 mg/kg/injection, schedule: Q01DX009 (ip), vehicle: saline with Tween-80 166 % of control | dose: 0.13 mg/kg/injection, schedule: Q01DX009 (ip), vehicle: saline with Tween-80 156 % of control | dose: 0.25 mg/kg/injection, schedule: Q01DX009 (ip), vehicle: saline with Tween-80 153 % of control and 173 % of control | dose: 1.25 mg/kg/injection, schedule: Q01DX009 (ip), vehicle: saline 167 % of control

CCCCCN(CCCCC)c1ccc(/C=C/c2ccnc3ccccc23)cc1
inactive: dose: 50.0 mg/kg/injection, schedule: Q01DX009 (ip), vehicle: Klucel (hydroxypropylcellulose) (HPC) 98 % of control | dose: 400.0 mg/kg/injection, schedule: Q01DX009 (ip), vehicle: Klucel (hydroxypropylcellulose) (HPC) 104 % of control

COC1OC(=O)C(Cl)=C1N=[N+]=[N-] (centres undefined)
inactive: dose: 15.0 mg/kg/injection, schedule: Q01DX005 (ip), vehicle: Klucel (hydroxypropylcellulose) (HPC) 105 % of control | dose: 30.0 mg/kg/injection, schedule: Q01DX005 (ip), vehicle: Klucel (hydroxypropylcellulose) (HPC) 102 % of control | dose: 60.0 mg/kg/injection, schedule: Q01DX005 (ip), vehicle: Klucel (hydroxypropylcellulose) (HPC) 109 % of control

CN1CCOc2cc3nc4ccccc4nc3cc21
inactive: dose: 25.0 mg/kg/injection, schedule: Q01DX009 (ip), vehicle: saline 107 % of control | dose: 50.0 mg/kg/injection, schedule: Q01DX009 (ip), vehicle: saline 98 % of control | [1] 105 % of control

COc1ccc(C[n+]2ccccc2C#N)cc1OC
inactive: [2] 103 % of control | [3] 107 % of control

NC(=O)CC(N)C(=O)O.[Cl-].[Cl-].[Cl-].[Cl-].[Pt+2] (centres undefined)
inactive: dose: 1.56 mg/kg/injection, schedule: Q01DX009 (ip), vehicle: water 99 % of control | dose: 3.13 mg/kg/injection, schedule: Q01DX009 (ip), vehicle: water 100 % of control | dose: 6.25 mg/kg/injection, schedule: Q01DX009 (ip), vehicle: water 100 % of control

CC(C)(C)N=NNc1ccc([N+](=O)[O-])cc1
inactive: dose: 12.5 mg/kg/injection, schedule: Q01DX009 (ip), vehicle: distilled water + Tween-80 106 % of control | dose: 25.0 mg/kg/injection, schedule: Q01DX009 (ip), vehicle: distilled water + Tween-80 100 % of control | dose: 50.0 mg/kg/injection, schedule: Q01DX009 (ip), vehicle: distilled water + Tween-80 93 % of control | dose: 100.0 mg/kg/injection, schedule: Q01DX009 (ip), vehicle: distilled water + Tween-80 86 % of control | dose: 200.0 mg/kg/injection, schedule: Q01DX009 (ip), vehicle: distilled water + Tween-80 96 % of control

C[CH2][Sn]([F])([F])[CH2]C
inactive: dose: 6.25 mg/kg/injection, schedule: Q04DX003 (ip), vehicle: saline 107 % of control | dose: 12.5 mg/kg/injection, schedule: Q04DX003 (ip), vehicle: saline 108 % of control | dose: 25.0 mg/kg/injection, schedule: Q04DX003 (ip), vehicle: saline 116 % of control

Cc1cc2cc3c4c(nn5cnnc5c4c2o1)-c1ccccc1CC3
inactive: [2] 101 % of control | [3] 104 % of control | dose: 200.0 mg/kg/injection, schedule: Q01DX005 (ip), vehicle: Klucel (hydroxypropylcellulose) (HPC) 98 % of control

CC(=O)NC1=NN(C(C)=O)C(C)(c2ccccc2)S1=O (centres undefined)
inactive: dose: 50.0 mg/kg/injection, schedule: Q01DX005 (ip), vehicle: saline with Tween-80 103 % of control | dose: 100.0 mg/kg/injection, schedule: Q01DX005 (ip), vehicle: saline with Tween-80 107 % of control | dose: 200.0 mg/kg/injection, schedule: Q01DX005 (ip), vehicle: saline with Tween-80 101 % of control

CCOC(=O)CCC(NC(=O)OCCNCCCl)C(=O)OCC (centres undefined)
inactive: [1] 86 % of control | dose: 200.0 mg/kg/injection, schedule: Q01DX009 (ip), vehicle: saline 86 % of control | dose: 400.0 mg/kg/injection, schedule: Q01DX009 (ip), vehicle: saline 95 % of control

c1ccc(-n2nc3c(c2-c2ccncc2)CCCc2ccccc2-3)cc1
inactive: dose: 12.5 mg/kg/injection, schedule: Q01DX009 (ip), vehicle: other 96 % of control | dose: 25.0 mg/kg/injection, schedule: Q01DX009 (ip), vehicle: other 98 % of control | dose: 50.0 mg/kg/injection, schedule: Q01DX009 (ip), vehicle: other 120 % of control | dose: 100.0 mg/kg/injection, schedule: Q01DX009 (ip), vehicle: other 110 % of control | dose: 200.0 mg/kg/injection, schedule: Q01DX009 (ip), vehicle: other 96 % of control
